We go through twelve compounds from patent US9815839B2, “N-(1-(substituted-phenyl)ethyl)-9H-purin-6-amines as PI3K inhibitors” (Incyte Corporation, priority 2010, dated 2017).

The structures appear in SMILES notation.

Experiment [1] concerns Pfeiffer cell line (diffuse large B cell lymphoma). Description: Pfeiffer cell proliferation assay. Type of experiment: cell-based. As to conditions: Homo sapiens, Pfeiffer, Pfeiffer cells, 3-4 days plus 12 hours [3H]-thymidine incorporation. Put shortly: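 Pfeiffer DLBCL cells grown in RPMI/10% FBS at 2×10^3 cells/well in ultra-low-binding plates with a range of compound concentrations for 3-4 days. [3H]-thymidine (1 μCi/well) was then added for 12 h more. Incorporation was read by filtration and scintillation counting.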
Background: Incorporation of labelled thymidine or its analogues reports DNA synthesis.

Another experiment has as its target T1, PI3Kδ (p110δ/p85α) (Homo sapiens, UniProt O00329).
T1 construct: purchased Millipore (Bedford, Mass.)
Put plainly: PI3Kδ scintillation proximity assay. Type of experiment: biochemical. The conditions noted are these: 20 μM ATP, 4 nM PI3Kδ. Put shortly:
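p110δ/p85α (4 nM) phosphorylated 20 μM PIP2 with 20 μM ATP plus [γ-33P]ATP in 20 mM MOPS pH 6.7, 10 mM MgCl2, 5 mM DTT, 0.03% CHAPS, 0.5% DMSO, 210 min at room temperature. EDTA quench, WGA SPA bead capture, scintillation counting; IC50 from log-concentration fit.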
A general note: Scintillation proximity formats need no separation of bound from free tracer.

T1 sequence (O00329 whole entry, species assumed): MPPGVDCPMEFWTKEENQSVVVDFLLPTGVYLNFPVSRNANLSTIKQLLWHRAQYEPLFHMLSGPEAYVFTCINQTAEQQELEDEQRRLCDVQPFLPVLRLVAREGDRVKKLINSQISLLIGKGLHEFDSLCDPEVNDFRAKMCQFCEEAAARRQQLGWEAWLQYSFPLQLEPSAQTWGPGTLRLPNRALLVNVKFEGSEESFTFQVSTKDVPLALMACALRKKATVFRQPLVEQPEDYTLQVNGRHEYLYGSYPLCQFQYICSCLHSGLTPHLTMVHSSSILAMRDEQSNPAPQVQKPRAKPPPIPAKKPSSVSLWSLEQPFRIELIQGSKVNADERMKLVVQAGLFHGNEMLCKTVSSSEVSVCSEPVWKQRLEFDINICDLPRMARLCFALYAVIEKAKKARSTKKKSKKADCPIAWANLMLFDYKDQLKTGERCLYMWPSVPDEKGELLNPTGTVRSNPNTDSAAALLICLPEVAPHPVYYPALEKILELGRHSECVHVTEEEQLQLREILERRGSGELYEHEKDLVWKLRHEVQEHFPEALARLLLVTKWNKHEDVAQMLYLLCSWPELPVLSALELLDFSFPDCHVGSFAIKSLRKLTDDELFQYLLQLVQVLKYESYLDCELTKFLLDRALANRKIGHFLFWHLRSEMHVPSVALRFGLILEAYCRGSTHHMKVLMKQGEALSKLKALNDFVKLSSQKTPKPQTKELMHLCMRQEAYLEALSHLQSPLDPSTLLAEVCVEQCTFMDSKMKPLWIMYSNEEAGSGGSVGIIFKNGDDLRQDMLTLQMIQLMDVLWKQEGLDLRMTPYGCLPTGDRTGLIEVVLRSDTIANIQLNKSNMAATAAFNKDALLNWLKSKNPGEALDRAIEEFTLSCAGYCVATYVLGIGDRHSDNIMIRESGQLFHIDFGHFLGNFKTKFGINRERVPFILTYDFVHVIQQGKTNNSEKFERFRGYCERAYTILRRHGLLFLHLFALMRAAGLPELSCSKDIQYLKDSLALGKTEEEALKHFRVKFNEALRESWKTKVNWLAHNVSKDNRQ
T1 sequence (P27986 whole entry partner, species assumed): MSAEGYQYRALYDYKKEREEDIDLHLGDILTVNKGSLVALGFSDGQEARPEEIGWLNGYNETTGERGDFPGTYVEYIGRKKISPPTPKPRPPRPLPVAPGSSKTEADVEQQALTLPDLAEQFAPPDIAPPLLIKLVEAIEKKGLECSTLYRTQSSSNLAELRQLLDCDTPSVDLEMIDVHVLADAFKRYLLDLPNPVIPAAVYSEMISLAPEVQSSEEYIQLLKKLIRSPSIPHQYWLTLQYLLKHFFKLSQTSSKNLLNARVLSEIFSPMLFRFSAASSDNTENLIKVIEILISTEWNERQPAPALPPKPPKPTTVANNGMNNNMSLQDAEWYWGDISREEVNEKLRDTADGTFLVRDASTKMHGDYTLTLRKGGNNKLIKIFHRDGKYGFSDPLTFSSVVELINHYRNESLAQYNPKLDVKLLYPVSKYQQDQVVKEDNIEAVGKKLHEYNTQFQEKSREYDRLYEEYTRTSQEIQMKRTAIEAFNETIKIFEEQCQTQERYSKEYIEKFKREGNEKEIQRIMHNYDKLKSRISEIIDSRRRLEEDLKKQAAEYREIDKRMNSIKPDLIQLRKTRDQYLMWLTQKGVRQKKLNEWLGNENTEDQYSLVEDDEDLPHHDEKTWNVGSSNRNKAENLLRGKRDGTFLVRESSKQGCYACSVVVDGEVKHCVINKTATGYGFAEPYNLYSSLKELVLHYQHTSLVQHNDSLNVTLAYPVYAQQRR

For `CCOc1cccc(-c2c(C)c(Cl)cc(C(C)Nc3ncnc4[nH]cnc34)c2OC)c1` (stereo not drawn) [Example 91, N-[1-(5-chloro-3′-ethoxy-2-methoxy-6-methylbiphenyl-3-yl)ethyl]-9H-purin-6-amine], the results for the IC50 (in experiment [1]; on PI3Kδ (p110δ/p85α)) were greater than 1000 nM and 50 to 100 nM, respectively.

On to `COc1c(C(C)Nc2ncnc3[nH]cnc23)cc(Cl)c(C)c1-c1ccc(Cl)c(F)c1` (stereo not drawn) [Example 92, N-{1-(4′,5-dichloro-3'-fluoro-2-methoxy-6-methylbiphenyl-3-yl)ethyl]-9H-purin-6-amine], for which the IC50 lay in the range of 100 to 500 nM in experiment [1] and 100 to 250 nM against PI3Kδ (p110δ/p85α).

Take `COc1c(C(C)Nc2ncnc3[nH]cnc23)cc(Cl)c(C)c1-c1ccc(F)c(C(F)(F)F)c1` (stereo not drawn) [Example 93, N-{1-[5-chloro-4′-fluoro-2-methoxy-6-methyl-3′-(trifluoromethyl)biphenyl-3-yl]ethyl}-9H-purin-6-amine]: the IC50 in experiment [1] is greater than 1000 nM; at PI3Kδ (p110δ/p85α) it was 50 to 100 nM.

Turning to `COc1c(C(C)Nc2ncnc3[nH]cnc23)cc(Cl)c(C)c1-c1ccc(F)c(C(=O)N(C)C)c1` (stereo not drawn) [Example 94, 3′-chloro-4-fluoro-6′-methoxy-N,N,2′-trimethyl-5′-[1-(9H-purin-6-ylamino)ethyl]biphenyl-3-carboxamide], the IC50 in experiment [1] was less than 100 nM; against PI3Kδ (p110δ/p85α), less than 50 nM.

With `COc1cc(-c2c(C)c(Cl)cc(C(C)Nc3ncnc4[nH]cnc34)c2OC)ccc1F` (stereo not drawn) [Example 95, N-[1-(5-chloro-4′-fluoro-2,3′-dimethoxy-6-methylbiphenyl-3-yl)ethyl]-9H-purin-6-amine], the IC50 in experiment [1] is 500 to 1000 nM; against PI3Kδ (p110δ/p85α), less than 50 nM.

As for `COc1ccc(-c2c(C)c(Cl)cc(C(C)Nc3ncnc4[nH]cnc34)c2OC)cc1OC` (stereo not drawn) [Example 96, N-[1-(5-chloro-2,3′,4′-trimethoxy-6-methylbiphenyl-3-yl)ethyl]-9H-purin-6-amine], the IC50 in experiment [1] is less than 100 nM; against PI3Kδ (p110δ/p85α), less than 50 nM.

As for `COc1ccc(-c2c(C)c(Cl)cc(C(C)Nc3ncnc4[nH]cnc34)c2OC)cc1Cl` (stereo not drawn) [Example 97, N-[1-(3′,5-dichloro-2,4′-dimethoxy-6-methylbiphenyl-3-yl)ethyl]-9H-purin-6-amine], the concentration for half-maximal inhibition (IC50) lay in the range of 100 to 500 nM in experiment [1] and 50 to 100 nM at PI3Kδ (p110δ/p85α).

As to `COc1c(C(C)Nc2ncnc3[nH]cnc23)cc(Cl)c(C)c1-c1ccnc(Cl)c1` (stereo not drawn) [Example 98, N-{1-[5-chloro-3-(2-chloropyridin-4-yl)-2-methoxy-4-methylphenyl]ethyl}-9H-purin-6-amine], the IC50 was less than 100 nM in experiment [1] and less than 50 nM on PI3Kδ (p110δ/p85α).

For `COc1c(C(C)Nc2ncnc3[nH]cnc23)cc(Cl)c(C)c1-c1cccc(N(C)C)c1` (stereo not drawn) [Example 100, N-{1-[5-chloro-3′-(dimethylamino)-2-methoxy-6-methylbiphenyl-3-yl]ethyl}-9H-purin-6-amine], the IC50 in experiment [1] was greater than 1000 nM; against PI3Kδ (p110δ/p85α), less than 50 nM.

In the case of `Cc1c(Cl)cc(C(C)Nc2ncnc3[nH]cnc23)c(-c2cc(F)cc(F)c2)c1-c1cn[nH]c1` (stereo not drawn) [Example 106, N-{1-[4-Chloro-3′,5′-difluoro-5-methyl-6-(1H-pyrazol-4-yl)biphenyl-2-yl]ethyl}-9H-purin-6-amine], the 50% inhibitory concentration (IC50) in experiment [1] was less than 100 nM; at PI3Kδ (p110δ/p85α), less than 50 nM.

On to `Cc1n[nH]c(C)c1-c1c(C)c(Cl)cc(C(C)Nc2ncnc3[nH]cnc23)c1-c1cc(F)cc(F)c1` (stereo not drawn) [Example 107, N-{1-[4-chloro-6-(3,5-dimethyl-1H-pyrazol-4-yl)-3′,5′-difluoro-5-methylbiphenyl-2-yl]ethyl}-9H-purin-6-amine], for which the IC50 was 100 to 500 nM in experiment [1] and less than 50 nM on PI3Kδ (p110δ/p85α).

Turning to `COc1ncc(-c2c(C)c(Cl)cc(C(C)Nc3ncnc4[nH]cnc34)c2OC)cc1F` (stereo not drawn) [Example 109, N-{1-[5-chloro-3-(5-fluoro-6-methoxypyridin-3-yl)-2-methoxy-4-methylphenyl]ethyl]-9H-purin-6-amine], the IC50 in experiment [1] is less than 100 nM; against PI3Kδ (p110δ/p85α), less than 50 nM.

The term IC50 denotes the concentration at which inhibition is half-maximal.
